Several values for one entry are separate records, joined by “and”; a condition that tells them apart may be missing. Identical values can stand only once.
Key:
C57B1/6 mice = test system: C57B1/6 mice
Protocol: Pressure-volume hemodynamics. Pressure-volume hemodynamics were assessed using the Aria System (Millar Instruments, Houston, Tex.). Male C57B1/6 mice aged 8-12 weeks (n=10) were anesthetized with 1-2% isoflurane in oxygen. The internal jugular vein was cannulated with PE tubing and a 10% albumin solution infused at 5 μl/min following a bolus of 150 μl over 5 minutes. After tracheotomy, a 19G cannula was inserted into the trachea and the animal was ventilated at a tidal volume of 200 μl at 100 breaths per minute (Harvard Apparatus, Holliston, Mass.). Mice were warmed throughout the procedure and constantly monitored for depth of anesthesia. Following an incision just dorsal to the xyphoid cartilage, the diaphragm was visualized from below, and after diaphragmatic incision, the left ventricular apex was visualized. The pressure-volume catheter was then inserted along the long axis of the left ventricle, from where it was adjusted to obtain rectangular shaped pressure-volume loops. Appropriate position was verified post mortem (FIG. 1, Panel D). […] Signals from the catheter were digitized using the Powerlab system (ADInstruments, Colorado Springs, Colo.) and stored for offline analysis using the PVAN software (Pressure-volume ANalysis, Millar Instruments, Houston, Tex.).
Data Analysis. Data were analyzed using Student's t statistic (paired) or the repeated measures analysis of variance using the post hoc comparison of Fisher (NCSS 2002). Exact p values are reported for all comparisons.

ApoE-KO mice [1] = assay: AngII induced abdominal aortic aneurysm formation model; format: in vivo, mouse
Protocol: (§1) Animals. Mice were maintained in temperature-controlled (20° C. to 22° C.) environment with a 12-hour light-dark cycle. Sterile water and standard chow diet were available ad libitum. All mice were C57BL/6J ApoE-KO male mice (Jackson Laboratories, Bar Harbor, […].) between the ages of 8-12 weeks. […] Animal procedures were carried out in accordance with the Institutional Review Board Guidelines at Stanford University.
Abdominal aortic aneurysm formation, sudden death and vein graft procedure. […] Abdominal aortic aneurysm was defined as ≧50% enlargement of the maximal abdominal aorta diameter. Mice that were found dead without any preceding signs of suffering were defined as sudden death.

[2] = test system: superoxide production in aortic sections; assay: Dihydroethidium oxidative fluorescence microtopography; format: in vivo, mouse
Protocol: Oxidative fluorescent microtopography. Superoxide was detected in the layers of the vessel wall using fluorescent probe dihydroethidium as described previously. Fresh segments of upper descending thoracic aorta were frozen in OCT compound. […] Molecular Probes). Images were obtained on a confocal microscope (Bio-Rad MRC-1024 laser; filter settings: excitation filter 488 nm; emission filter 550 nm). 2-hydroxyethidium fluorescence was measured from high power (60× mag) images. Endothelium by quantifying fluorescence (intensity×area) on the luminal side of the internal elastic lamina, media between the internal and external elastic lamina, and adventitia outside the external elastic lamina. Quantification was performed using Image Pro Plus software (Media Cybernetics, Silver Springs, Md.). Medial Analysis was performed blind to the samples identity.

ApoE-KO mice [3] = assay: Vein graft neointimal hyperplasia model; format: in vivo, mouse
Protocol: as §1

eNOS protein = conditions: experimental groups incl. apelin treated animals
Protocol: Immunoblotting. Lung homogenate (n≧3 per group) were homogenized on ice for 20 seconds in lysis buffer (50 mmol/L Tris, pH 7.5, 150 mmol/L NaCl, 0.1% SDS, 0.5% deoxycholate, 1% Nonidet P-40) containing protease inhibitors (Complete; Boehringer Mannheim) and 1 mmol/L phenylmethylsulfonyl fluoride. Protein lysates (8 μg) were resolved using SDS-PAGE and transferred to polyvinylidene difluoride membranes. Membranes were incubated with a 1:2000 dilution of mouse anti-eNOS monoclonal antibody (Cell Signaling, Location), followed by a 1:2500 dilution of rabbit anti-mouse horseradish peroxidase-conjugated secondary antibody (Promega). Protein bands were visualized by chemiluminescence.

C57B/16 mice = assay: Magnetic resonance imaging after intraperitoneal apelin-12 injection; format: in vivo, mouse; conditions: post apelin-12 300 μg/kg intraperitoneal, one hour prior to scanning; n=9
Protocol: Magnetic resonance imaging. […] Platinum needle ECG leads were inserted subcutaneously. Respiration was monitored by means of a pneumatic pillow sensor positioned against the abdomen. Mouse body temperature was maintained during scanning at 37° C. by a flow of heated air thermostatically controlled by a rectal temperature probe. Magnetic resonance images were acquired on a 4.7T Oxford magnet controlled by a Varian Inova console (Varian, Palo Alto, Calif.) using a transmit-receive, quadrature, volume coil with an inner diameter of 3.5 cm. Image acquisition was gated to respiration and to the ECG R wave (SA Instruments, Stony Brook, N.Y.). Coronal and sagittal scout images led to the acquisition of multiple contiguous 1 mm thick, short axis slices orthogonal to the interventricular septum. […] Planimetry measurements of end diastolic and end systolic dimension were derived offline from short axis views of the left ventricle at the level of the papillary muscles using ImageJ software (National Institutes of Health, Bethesda, Md.). Ejection fraction was calculated as [[…]. Data Analysis. […] Exact p values are reported for all comparisons.

isolated rat heart = conditions: Szokodi et al; cited from earlier work
[4] = test system: AT1R and APJ heterodimerization; assay: AT1R-APJ receptor heterodimerization by immunoprecipitation; format: cell-based; conditions: addition of apelin
Protocol: Cells were immediately lysed.
Immunoprecipitation and Western Blotting Immunoprecipitation was performed as previously described (REF). In brief, cells were lysed using 10× Cell Lysis Buffer (Cell Signaling Technologies CITY). Lysates were precleared with protein G and immunoprecipitation was performed with the respective antibodies at concentration of 1 mg/mL for 24 hrs at 4C. Protein G agarose was added and incubated for additional 2 hours. Western blotting on SDS-PAGE gels were performed as previously described, and the bands were visualized using the enhanced chemiluminescence system (Amersham Biosciences).

[5] = test system: isolated human saphenous vein; conditions: Katugampola et al.; cited from earlier work
[6] = post 100 nM Apelin-12 infused at 5 μl/min for 20 minutes

apelin
Time constants of relaxation (C57B1/6 mice; after apelin infusion): not different | slope and intercept of linear fit of end diastolic pressure-volume relationship (C57B1/6 mice; after apelin infusion): not different | Arterial elastance (C57B1/6 mice; following apelin infusion): did not change significantly | dP/dtmax (C57B1/6 mice; following apelin infusion): did not change | end systolic pressure (C57B1/6 mice; following apelin infusion): reduced | EDV mean (C57B1/6 mice; [6]): 26.2 | Emax (time varying elastance) (C57B1/6 mice; [6]): 12.7±3.1 and 12.7 | HR mean (C57B1/6 mice; [6]): 353 | PRSW intercept mean (C57B1/6 mice; [6]): 11.3 | LV end diastolic volume (C57B1/6 mice; post apelin infusion): 26.2±5.9 RVU | constant k1 of monoexponential fit LVEDP=k1*exp(k2*LVEDV) (C57B1/6 mice; post apelin infusion): 0.111±0.002 | exponential k2 of monoexponential fit LVEDP=k1*exp(k2*LVEDV) (C57B1/6 mice; post apelin infusion): 0.69±0.41 | heart rate (C57B1/6 mice; post apelin infusion, invasive study): 353±33 bpm | animals with aneurysm formation (ApoE-KO mice [1]; AngII plus apelin treatment): 1/12 | incidence of AAA formation (ApoE-KO mice [1]; apelin added to AngII infused mice): 8% | incidence of AAA formation within 4 weeks (ApoE-KO mice [1]; single agent infusion): did not observe AAA formation | aortic superoxide production vs AngII alone ([2]; apelin added to AngII treated mice): significantly reduced | Total aortic fluorescence, lower than saline treated controls ([2]; apelin treated mice): 3 fold | reduction of mean vessel wall area (ApoE-KO mice [3]; apelin added to AngII treated animals): 34% | reduction of mean vessel wall area vs saline treated controls (ApoE-KO mice [3]; apelin, 4 weeks following vein graft surgery): 42% | eNOS protein levels in aortas (eNOS protein): no difference | Ejection fraction (C57B/16 mice): 67.7±1.6% | heart rate (inverse of R-R interval of electrocardiogram) (C57B/16 mice): 559±19 beats per minute | left ventricular end diastolic area (C57B/16 mice): 0.104±0.005 cm2 | EC50, contractility of the isolated rat heart (isolated rat heart): low picomolar range | AngII induced receptor heterodimerization [4]: did not affect | effect on isolated human saphenous vein [5]: potently contracts
